Assay results: patent US11504364B2, “Inhibitors of fibroblast activation protein” (Praxis Biotech LLC, priority 2018, dated 2022)

Key:
Type in all cases: biochemical
[1] = target: recombinant human DPPIV (rhDPPIV) (Homo sapiens (Human), UniProt P27487); test: DPPIV enzymatic activity assay; settings: Table 3B
[2] = target: recombinant human DPP9 (rhDPP9) (Homo sapiens (Human), UniProt Q86TI2); test: Inhibition of DPP9 activity, 10 ng rhDPP9, H-Gly-Pro-AMC; settings: Table 3B
[3] = target: recombinant human FAPα (rhFAPα) (Homo sapiens (Human), UniProt Q12884); test: FAPα enzymatic exopeptidase (dipeptidase) activity assay, Z-Gly-Pro-AMC; settings: for inhibition at 1 µM: 1 μM test compound, exopeptidase, Table 3B, read-out: rhFAPα (% exo inh @ 1 μM)
Chain of recombinant human FAPα (rhFAPα) (Q12884 whole entry): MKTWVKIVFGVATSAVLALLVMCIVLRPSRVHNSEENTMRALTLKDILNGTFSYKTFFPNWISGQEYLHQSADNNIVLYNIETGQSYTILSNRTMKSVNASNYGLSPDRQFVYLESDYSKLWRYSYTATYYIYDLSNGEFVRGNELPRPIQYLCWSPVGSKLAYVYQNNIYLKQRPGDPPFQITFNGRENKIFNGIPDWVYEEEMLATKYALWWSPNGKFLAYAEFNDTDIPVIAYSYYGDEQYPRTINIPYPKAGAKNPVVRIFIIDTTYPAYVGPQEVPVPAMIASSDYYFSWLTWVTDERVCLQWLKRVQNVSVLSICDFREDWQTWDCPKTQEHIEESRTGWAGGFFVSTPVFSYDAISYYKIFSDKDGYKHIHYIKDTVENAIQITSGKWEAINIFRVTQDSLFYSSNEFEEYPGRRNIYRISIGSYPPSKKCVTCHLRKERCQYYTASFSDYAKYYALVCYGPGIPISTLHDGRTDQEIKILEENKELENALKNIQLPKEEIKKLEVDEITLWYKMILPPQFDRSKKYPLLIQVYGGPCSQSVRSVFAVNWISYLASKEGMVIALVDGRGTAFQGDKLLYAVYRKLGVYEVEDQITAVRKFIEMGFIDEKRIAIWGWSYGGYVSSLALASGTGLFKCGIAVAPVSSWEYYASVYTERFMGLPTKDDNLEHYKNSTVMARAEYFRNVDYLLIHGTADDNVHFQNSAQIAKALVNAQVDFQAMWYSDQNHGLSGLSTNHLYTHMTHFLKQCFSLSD

Chain of recombinant human DPP9 (rhDPP9) (Q86TI2 whole entry): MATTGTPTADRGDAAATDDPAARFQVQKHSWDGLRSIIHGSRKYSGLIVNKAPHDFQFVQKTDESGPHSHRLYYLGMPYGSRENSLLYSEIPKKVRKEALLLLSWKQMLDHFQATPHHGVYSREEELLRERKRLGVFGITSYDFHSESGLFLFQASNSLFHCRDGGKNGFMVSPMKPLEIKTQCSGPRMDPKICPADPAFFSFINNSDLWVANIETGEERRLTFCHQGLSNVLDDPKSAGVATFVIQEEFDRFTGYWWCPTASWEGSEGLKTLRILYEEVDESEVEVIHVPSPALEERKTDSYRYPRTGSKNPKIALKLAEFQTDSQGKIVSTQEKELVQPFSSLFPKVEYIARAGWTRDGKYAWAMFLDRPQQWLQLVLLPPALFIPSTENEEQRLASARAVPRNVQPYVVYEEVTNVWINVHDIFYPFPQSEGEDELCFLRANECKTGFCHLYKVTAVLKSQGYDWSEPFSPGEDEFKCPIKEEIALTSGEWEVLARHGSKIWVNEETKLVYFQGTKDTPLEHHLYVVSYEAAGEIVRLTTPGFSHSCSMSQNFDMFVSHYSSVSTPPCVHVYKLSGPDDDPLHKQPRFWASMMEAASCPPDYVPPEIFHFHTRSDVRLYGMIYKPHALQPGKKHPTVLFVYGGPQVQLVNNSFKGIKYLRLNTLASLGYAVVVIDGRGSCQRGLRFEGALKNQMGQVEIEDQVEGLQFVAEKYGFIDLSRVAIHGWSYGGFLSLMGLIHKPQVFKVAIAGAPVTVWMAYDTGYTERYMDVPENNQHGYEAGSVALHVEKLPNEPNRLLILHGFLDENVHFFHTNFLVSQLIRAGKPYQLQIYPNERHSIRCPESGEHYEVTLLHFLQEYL
Chain of recombinant human DPPIV (rhDPPIV) (P27487 whole entry): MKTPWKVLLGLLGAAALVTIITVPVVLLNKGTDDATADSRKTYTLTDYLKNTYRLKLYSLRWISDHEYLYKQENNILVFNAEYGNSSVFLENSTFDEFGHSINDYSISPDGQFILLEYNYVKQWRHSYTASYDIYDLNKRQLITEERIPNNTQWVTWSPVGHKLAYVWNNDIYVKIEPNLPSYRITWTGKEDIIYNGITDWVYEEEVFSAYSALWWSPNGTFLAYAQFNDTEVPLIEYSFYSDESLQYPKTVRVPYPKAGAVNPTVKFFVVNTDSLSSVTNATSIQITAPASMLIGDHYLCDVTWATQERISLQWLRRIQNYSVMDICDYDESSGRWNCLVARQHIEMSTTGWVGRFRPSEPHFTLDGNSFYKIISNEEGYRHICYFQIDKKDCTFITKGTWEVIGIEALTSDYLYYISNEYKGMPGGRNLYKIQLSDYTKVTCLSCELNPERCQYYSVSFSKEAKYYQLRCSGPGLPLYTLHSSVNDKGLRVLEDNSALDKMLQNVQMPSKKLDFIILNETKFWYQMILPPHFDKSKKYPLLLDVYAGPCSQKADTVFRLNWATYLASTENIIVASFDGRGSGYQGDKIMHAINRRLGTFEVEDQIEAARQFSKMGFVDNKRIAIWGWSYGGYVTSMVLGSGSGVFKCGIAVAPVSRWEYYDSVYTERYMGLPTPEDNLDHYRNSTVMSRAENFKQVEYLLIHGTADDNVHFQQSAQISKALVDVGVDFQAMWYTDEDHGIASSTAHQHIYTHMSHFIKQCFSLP

N#C[C@@H]1CC(F)(F)CN1C(=O)CNC(=O)c1ccnc2ccc(-c3ccncc3)cc12 [Compound 6, (S)—N-(2-(2-cyano-4,4-difluoropyrrolidin-1-yl)-2-oxoethyl)-6-(pyridin-4-yl)quinoline-4-carboxamide] showed an IC50 [1] greater than 10000 nM and an IC50 [2] of less than 1000 nM.
Work on N#C[C@@H]1CC(F)(F)CN1C(=O)CNC(=O)c1ccnc2ccc(-c3ccc4c(c3)OCCO4)cc12 [Compound 24] yielded an IC50 [3] of less than 1000 nM, an inhibition at 1 µM [3] greater than 50% and an IC50 [2] of less than 1000 nM.
With N#C[C@@H]1CC(F)(F)CN1C(=O)CNC(=O)c1ccnc2ccc(-c3cccc4c3CCNC4=O)cc12 [Compound 109] the IC50 [1] was greater than 10000 nM and the IC50 [2] was less than 1000 nM.
Work on N#C[C@@H]1CC(F)(F)CN1C(=O)CNC(=O)c1ccnc2ccc(-c3cccnc3)cc12 [Compound 5, (S)—N-(2-(2-cyano-4,4-difluoropyrrolidin-1-yl)-2-oxoethyl)-6-(pyridin-3-yl)quinoline-4-carboxamide] yielded an IC50 [1] greater than 10000 nM and an IC50 [2] of less than 1000 nM.
For N#C[C@@H]1CC(F)(F)CN1C(=O)CNC(=O)c1ccnc2ccc(-c3ccc4[nH]ccc4c3)cc12 [Compound 9, (S)—N-(2-(2-cyano-4,4-difluoropyrrolidin-1-yl)-2-oxoethyl)-6-(1H-indol-5-yl)quinoline-4-carboxamide], the IC50 [1] was greater than 10000 nM and the IC50 [2] was less than 1000 nM.
For CC(C)(C)c1ccc(-c2ccc3nccc(C(=O)NCC(=O)N4CC(F)(F)C[C@H]4C#N)c3c2)cc1 [Compound 7, (S)-6-(4-(tert-butyl)phenyl)-N-(2-(2-cyano-4,4-difluoropyrrolidin-1-yl)-2-oxoethyl)quinoline-4-carboxamide], the IC50 [1] was greater than 10000 nM and the IC50 [2] was less than 1000 nM.
COCCOc1ccc(-c2ccc3nccc(C(=O)NCC(=O)N4CC(F)(F)C[C@H]4C#N)c3c2)cn1 [Compound 36] was tested, and the IC50 [1] was greater than 10000 nM and the IC50 [2] was less than 1000 nM.
CNC(=O)c1cccc(-c2ccc3nccc(C(=O)NCC(=O)N4CC(F)(F)C[C@H]4C#N)c3c2)c1 [Compound 102] gave an IC50 [1] greater than 10000 nM and an IC50 [2] of less than 1000 nM.
N#C[C@@H]1CC(F)(F)CN1C(=O)CNC(=O)c1ccnc2ccc(/C=C/c3ccccn3)cc12 [Compound 21] was tested, and the IC50 [1] was greater than 10000 nM and the IC50 [2] was less than 1000 nM.
N#C[C@@H]1CC(F)(F)CN1C(=O)CNC(=O)c1ccnc2ccc(-c3ccc4c(c3)CCNC4=O)cc12 [Compound 18, (S)—N-(2-(2-cyano-4,4-difluoropyrrolidin-1-yl)-2-oxoethyl)-6-(1-oxo-1,2,3,4-tetrahydroisoquinolin-6-yl)quinoline-4-carboxamide] was tested, and the IC50 [1] was less than 1000 nM and the IC50 [2] was less than 1000 nM.
Molecule N#C[C@@H]1CC(F)(F)CN1C(=O)CNC(=O)c1ccnc2ccc(-c3ccc4c(c3)CC(=O)N4)cc12 [Compound 106] has an IC50 [3] of less than 1000 nM, an inhibition at 1 µM [3] greater than 50% and an IC50 [2] of less than 1000 nM.
Work on N#C[C@@H]1CC(F)(F)CN1C(=O)CNC(=O)c1ccnc2ccc(-c3ccc(OC(F)(F)F)cc3)cc12 [Compound 31] yielded an IC50 [1] greater than 10000 nM and an IC50 [2] of less than 1000 nM.
For N#C[C@@H]1CC(F)(F)CN1C(=O)CNC(=O)c1ccnc2ccc(-c3ccc4c(c3)CCN4)cc12 [Compound 12, (S)—N-(2-(2-cyano-4,4-difluoropyrrolidin-1-yl)-2-oxoethyl)-6-(indolin-5-yl)quinoline-4-carboxamide], the IC50 [1] was greater than 10000 nM and the IC50 [2] was less than 1000 nM.
In the case of N#C[C@@H]1CC(F)(F)CN1C(=O)CNC(=O)c1ccnc2ccc(-c3c[nH]c4ccccc34)cc12 [Compound 103], the IC50 [3] is reported as less than 1000 nM, the inhibition at 1 µM [3] is reported as greater than 50% and the IC50 [2] is reported as less than 1000 nM.
Molecule CNC(=O)c1ccc(-c2ccc3nccc(C(=O)NCC(=O)N4CC(F)(F)C[C@H]4C#N)c3c2)cc1 [Compound 100] has an IC50 [1] greater than 10000 nM and an IC50 [2] of less than 1000 nM.
Molecule CC(=O)Nc1cccc(-c2ccc3nccc(C(=O)NCC(=O)N4CC(F)(F)C[C@H]4C#N)c3c2)c1 [Compound 98] has an IC50 [1] greater than 10000 nM and an IC50 [2] of less than 1000 nM.
Work on Cn1cc(-c2ccc3nccc(C(=O)NCC(=O)N4CC(F)(F)C[C@H]4C#N)c3c2)cn1 [Compound 10, (S)—N-(2-(2-cyano-4,4-difluoropyrrolidin-1-yl)-2-oxoethyl)-6-(1-methyl-1H-pyrazol-4-yl)quinoline-4-carboxamide] yielded an IC50 [1] greater than 10000 nM and an IC50 [2] of less than 1000 nM.
Work on COC(=O)/C=C/c1ccc2nccc(C(=O)NCC(=O)N3CC(F)(F)C[C@H]3C#N)c2c1 [Compound 22] yielded an IC50 [1] greater than 10000 nM and an IC50 [2] of less than 1000 nM.
With N#C[C@@H]1CC(F)(F)CN1C(=O)CNC(=O)c1ccnc2ccc(/C=C/c3ccc4ncccc4c3)cc12 [Compound 105] the inhibition at 1 µM [3] was greater than 50%.
Molecule N#C[C@@H]1CC(F)(F)CN1C(=O)CNC(=O)c1ccnc2ccc(-c3ccc(=O)[nH]c3)cc12 [Compound 17, (S)—N-(2-(2-cyano-4,4-difluoropyrrolidin-1-yl)-2-oxoethyl)-6-(6-oxo-1,6-dihydropyridin-3-yl)quinoline-4-carboxamide] has an IC50 [1] greater than 10000 nM and an IC50 [2] of less than 1000 nM.
N#C[C@@H]1CC(F)(F)CN1C(=O)CNC(=O)c1ccnc2ccc(/C=C/c3ccc4c(c3)CCN4)cc12 [Compound 115] was tested, and the IC50 [1] was greater than 10000 nM and the IC50 [2] was less than 1000 nM.
For CNC(=O)c1ccc(-c2ccc3nccc(C(=O)NCC(=O)N4CC(F)(F)C[C@H]4C#N)c3c2)cc1F [Compound 116], the IC50 [1] was greater than 10000 nM and the IC50 [2] was less than 1000 nM.
For CC(=O)Nc1ccc(-c2ccc3nccc(C(=O)NCC(=O)N4CC(F)(F)C[C@H]4C#N)c3c2)cc1 [Compound 97], the IC50 [1] was greater than 10000 nM and the IC50 [2] was less than 1000 nM.
Molecule CN(C)c1ccc2cc(-c3ccc4nccc(C(=O)NCC(=O)N5CC(F)(F)C[C@H]5C#N)c4c3)ccc2c1 [Compound 15, (S)—N-(2-(2-cyano-4,4-difluoropyrrolidin-1-yl)-2-oxoethyl)-6-(6-(dimethylamino)naphthalen-2-yl)quinoline-4-carboxamide] has an IC50 [1] greater than 10000 nM and an IC50 [2] of less than 1000 nM.
N#C[C@@H]1CC(F)(F)CN1C(=O)CNC(=O)c1ccnc2ccc(-c3cnn(C4CC4)c3)cc12 [Compound 11, (S)—N-(2-(2-cyano-4,4-difluoropyrrolidin-1-yl)-2-oxoethyl)-6-(1-cyclopropyl-1H-pyrazol-4-yl)quinoline-4-carboxamide] was tested, and the IC50 [1] was 1000 to 10000 nM and the IC50 [2] was less than 1000 nM.
Work on N#C[C@@H]1CC(F)(F)CN1C(=O)CNC(=O)c1ccnc2ccc(-c3cccc4c3CCC(=O)N4)cc12 [Compound 108] yielded an IC50 [1] greater than 10000 nM and an IC50 [2] of less than 1000 nM.
N#C[C@@H]1CC(F)(F)CN1C(=O)CNC(=O)c1ccnc2ccc(/C=C/c3ccccc3)cc12 [Compound 14, (S,E)-N-(2-(2-cyano-4,4-difluoropyrrolidin-1-yl)-2-oxoethyl)-6-styrylquinoline-4-carboxamide] gave an IC50 [1] greater than 10000 nM and an IC50 [2] of less than 1000 nM.
Molecule Cn1ccc2cc(-c3ccc4nccc(C(=O)NCC(=O)N5CC(F)(F)C[C@H]5C#N)c4c3)ccc21 [Compound 8, (S)—N-(2-(2-cyano-4,4-difluoropyrrolidin-1-yl)-2-oxoethyl)-6-(1-methyl-1H-indol-5-yl)quinoline-4-carboxamide] has an IC50 [1] of 1000 to 10000 nM and an IC50 [2] of less than 1000 nM.
Work on CC(C)C/C=C/c1ccc2nccc(C(=O)NCC(=O)N3CC(F)(F)C[C@H]3C#N)c2c1 [Compound 13, (S,E)-N-(2-(2-cyano-4,4-difluoropyrrolidin-1-yl)-2-oxoethyl)-6-(4-methylpent-1-en-1-yl)quinoline-4-carboxamide] yielded an IC50 [1] greater than 10000 nM and an IC50 [2] of less than 1000 nM.
Molecule N#C[C@@H]1CC(F)(F)CN1C(=O)CNC(=O)c1ccnc2ccc(-c3ccc4c(c3)CNC4=O)cc12 [Compound 104] has an IC50 [1] of less than 1000 nM and an IC50 [2] of less than 1000 nM.
